Source: US8198325B2, “Unsaturated alkyl esters of 5-aminolevulinic acid, their preparation and their use” (Industry Foundation of Chonnam National University, priority 2006, dated 2012)

Key:
[1] = test system: A431 cells; test: Fluorescence spectroscopy of PpIX synthesis in A431 cells (FIG. 1); assay type: cell-based; settings: 4 hours incubation, excitation 405 nm, emission 605 nm
Protocol: 4. Fluorescence Spectroscopy
The synthesis of PpIX, induced by ALA and unsaturated alkyl esters of ALA in cells and skin tissues, was quantified using fluorescence spectroscopy.
The intensity of PpIX was measured on a fluorescence spectrophotometer (Uvikon, model 943) with excitation at 408 nm.
Each cell line was plated at a density of 2×10^5 cells in a 10 cm^2-dish (Falcon), and when the cells reached a confluent state of 70˜80%, serum-free media containing various concentrations (0.001˜1 mM) of ALA or ALA esters was added to the cells, followed by incubation for 4 hours.
After being washed once with PBS, the cells were detached with a 50% methanol solution containing 1M […] (HClO4) and scraped off using a Costar cell scraper.
The cells thus harvested were incubated for 5 min and centrifuged.
The fluorescence of the supernatant thus obtained was determined using a spectrofluorometer with excitation at 405 nm and emission at 605 nm.
The results are graphed in FIGS. 1 and 2.

[2] = test system: Squamous cell carcinoma (A431); test: Cytotoxicity test (cell survival), MTT assay, A431; assay type: cell-based; settings: 24 hours
Protocol: (§1) 3. Cytotoxicity Test (Cell Survival Test)
(§2) Cytotoxicity was conducted through an MTT assay (Chemicon, Serologicals Corporation, USA) as follows.
(§3) Cells were seeded at a density of 3×10^4 cells/well in 96-well plates (Nunc Do, Denmark).
(§4) When the cells were at a confluence of about 60˜70%, 24 hours after seeding, the media was exchanged for 100 μl of fresh, serum-free media containing various respective concentrations of ALA or ALA-ester, after which the cells were incubated for an additional 24 hours.
(§5) An MTT solution (0.5 mg/mL) was added in an amount of […] to each well, followed by incubation for 4 hours to form formazan crystals. A color-developing solution (isopropanol with 0.04 N HCl) was added in an amount of […] per well to solubilize the formazan crystals.
(§6) The plates were measured for absorbance at 570 nm using an ELISA reader (EMAX, Molecular Device, USA).
(3) Squamous Cell Carcinoma (A431)

[3] = test system: Human dermal fibroblast (hF); test: Cytotoxicity test (cell survival), MTT assay, hF; assay type: cell-based; settings: 24 hours
Protocol: as §1, §2, §3, §4, §5, §6
(2) Human Dermal Fibroblast (hF)

[4] = test system: Human epidermal keratinocyte (HEK); test: Cytotoxicity test (cell survival), MTT assay, HEK; assay type: cell-based; settings: 24 hours; for MTT absorbance (OD): 570 nm; for Cell survival Avg (%) ± SD (%): Table 3; for activity at 10 µM / activity at 2000 µM / activity at 50 µM / activity at 100 µM / activity at 500 µM / activity at 1000 µM / activity at 5000 µM: Homo sapiens, Table 2, read-out: Cell survival (% of control C, in brackets); for activity at 10 µM: HEK001, 0.01 mM; for activity at 2000 µM: HEK2, 2 mM; for activity at 50 µM / activity at 100 µM / activity at 500 µM / activity at 1000 µM / activity at 5000 µM: Keratinocyte
Protocol: as §1, §2, §3, §4, §5, §6
(1) Human Epidermal Keratinocyte (HEK)
Cell survival of the human epidermal keratinocytes treated with ALA esters of the present invention and with ALA was compared. The results are summarized in Tables 1 and 2, which are represented in different manners depending on the measurements.

[5] = test system: Malignant melanoma (TMX 13); test: Cytotoxicity test (cell survival), MTT assay, TXM 13; assay type: cell-based; settings: 24 hours
Protocol: as §1, §2, §3, §4, §5, §6
(4) Malignant Melanoma (TMX 13)

[6] = test system: skin of ICR mice (epidermis, sebaceous gland); test: Cell death in skin tissue after ointment and LED irradiation, H&E (FIGS. 9, 10); assay type: in vivo
Protocol: Ointments comprising ALA or the ALA esters of the present invention at various concentrations (5˜15%) were applied in a predetermined amount ([…]) to the back of shaved ICR mice.
1 and 4 hours after the application, the back was irradiated with LED visible light (dose 25 J/cm^2).
24, 48 and 72 hours after the irradiation, skin samples were taken from the back of the mice, stained with hematoxylin-eosin (H&E) and observed for cell death.

Row | SMILES | Cell survival Avg (%) ± SD (%) ([2]; A431, 0.01 mM) | Cell survival Avg (%) ± SD (%) ([2]; A431, 0.05 mM) | Cell survival Avg (%) ± SD (%) ([2]; A431, 0.5 mM) | Cell survival Avg (%) ± SD (%) ([2]; A431, 1 mM) | Cell survival Avg (%) ± SD (%) ([2]; A431, 2 mM) | Cell survival Avg (%) ± SD (%) ([3]; 0.01 mM) | Cell survival Avg (%) ± SD (%) ([3]; 0.05 mM) | Cell survival Avg (%) ± SD (%) ([3]; 0.1 mM) | Cell survival Avg (%) ± SD (%) ([3]; 0.5 mM) | Cell survival Avg (%) ± SD (%) ([3]; 1 mM) | Cell survival Avg (%) ± SD (%) ([3]; 2 mM) | MTT absorbance (OD) ([4]; 0.01 mM) | MTT absorbance (OD) ([4]; 0.05 mM) | Cell survival Avg (%) ± SD (%) ([4]; 0.05 mM) | MTT absorbance (OD) ([4]; 0.1 mM) | Cell survival Avg (%) ± SD (%) ([4]; 0.1 mM) | MTT absorbance (OD) ([4]; 0.5 mM) | Cell survival Avg (%) ± SD (%) ([4]; 0.5 mM) | MTT absorbance (OD) ([4]; 1 mM) | Cell survival Avg (%) ± SD (%) ([4]; 1 mM) | other results
1 | COC(=O)CCC(=O)CN [ALA-1, 5-Aminolevulinic acid methyl ester, reference compound] | 101.03 ± 0.71 | 103.06 ± 1.05 | 101.75 ± 3.52 | 101.45 ± 1.54 | 98.4 ± 1.2 | 110.33 ± 15.01 | 116.86 ± 17.63 | 110.44 ± 17.98 | 113 ± 22.58 | 120.48 ± 10.91 | 87.65 ± 14.77 | 2.952 | 3.482 | 94.01 ± 0.71 | 3.313 | 125.58 ± 1.05 | 3.421 | 88.14 ± 0.95 | 3.435 | 72.02 ± 3.52 | PpIX synthesis compared with ALA [1]: greater PpIX synthesis in A431 cells than did ALA; Cell survival Avg (%) ± SD (%) ([4]; 0.01 mM): 116.69 ± 1%; MTT absorbance (OD) ([4]; 2 mM): 3.093 OD; Cell survival Avg (%) ± SD (%) ([4]; 2 mM): 83.69 ± 1.54%; MTT absorbance (OD) ([4]; 5 mM): 2.398 OD; activity at 10 µM [4]: 88.8%; activity at 2000 µM [4]: 93%; activity at 50 µM ([4]; 0.05 mM): 104%; activity at 100 µM ([4]; 0.1 mM): 99.6%; activity at 500 µM ([4]; 0.5 mM): 103%; activity at 1000 µM ([4]; 1 mM): 103%; activity at 5000 µM ([4]; 5 mM): 69%; Cell survival Avg ± SD (%) ([5]; TXM 13, 0.01 mM): 104.69 ± 6.64%; Cell survival Avg ± SD (%) ([5]; TXM 13, 0.05 mM): 100.34 ± 4.39%; Cell survival Avg ± SD (%) ([5]; TXM 13, 0.1 mM): 87.37 ± 8.13%; Cell survival Avg ± SD (%) ([5]; TXM 13, 0.5 mM): 64.59 ± 3.95%; Cell survival Avg ± SD (%) ([5]; TXM 13, 1 mM): 69.86 ± 8.83%; Cell survival Avg ± SD (%) ([5]; TXM 13, 2 mM): 69.94 ± 13.42%; Sebaceous gland morphology after irradiation ([6]; 24 hours after visible light 25 J/cm^2, FIG. 10): destroyed partially or wholly; Epidermis histology (H&E) after irradiation ([6]; 48 hours after visible light 25 J/cm^2, FIGS. 9B and 9C): both necrosis and rejuvenation
2 | C=CCCCOC(=O)CCC(=O)CN [ALA-4, 5-Aminolevulinic acid 4-pentenyl ester] | 101.68 ± 0.81 | 102.51 ± 0.54 | 80.91 ± 1.6 | 80.11 ± 3.43 | 84.57 ± 1.77 | 101.13 ± 13.45 | 114.49 ± 17.1 | 103.35 ± 14.09 | 95.81 ± 10.6 | 100.32 ± 6.36 | 93.13 ± 8.07 | 2.8 | 2.603 | 66.21 ± 0.59 | 2.98 | 53.63 ± 0.51 | 2.561 | 50.17 ± 0.51 | 2.475 | 57.17 ± 1.60 | PpIX synthesis compared with ALA [1]: greater PpIX synthesis in A431 cells than did ALA; Cell survival Avg (%) ± SD (%) ([2]; A431, 0.1 mM): 93.24 ± 2.17%; MTT absorbance (OD) ([4]; 2 mM): 2.407 OD; Cell survival Avg (%) ± SD (%) ([4]; 2 mM): 44.82 ± 3.43%; MTT absorbance (OD) ([4]; 5 mM): 1.354 OD; activity at 10 µM [4]: 77.3%; activity at 2000 µM [4]: 66.3%; activity at 50 µM ([4]; 0.05 mM): 71.6%; activity at 100 µM ([4]; 0.1 mM): 82%; activity at 500 µM ([4]; 0.5 mM): 70.5%; activity at 1000 µM ([4]; 1 mM): 68.3%; activity at 5000 µM ([4]; 5 mM): 37.1%; Cell survival Avg ± SD (%) ([5]; TXM 13, 0.01 mM): 96.3 ± 14.69%; Cell survival Avg ± SD (%) ([5]; TXM 13, 0.05 mM): 83.42 ± 12.09%; Cell survival Avg ± SD (%) ([5]; TXM 13, 0.1 mM): 72.55 ± 9.25%; Cell survival Avg ± SD (%) ([5]; TXM 13, 0.5 mM): 75.01 ± 13.79%; Cell survival Avg ± SD (%) ([5]; TXM 13, 1 mM): 60.95 ± 8.31%; Cell survival Avg ± SD (%) ([5]; TXM 13, 2 mM): 49.85 ± 53.24%
3 | C=CCCOC(=O)CCC(=O)CN [ALA-3, 5-Aminolevulinic acid 3-butenyl ester] | 104.08 ± 0.59 | 105.59 ± 0.51 | 97.46 ± 3.82 | 97.65 ± 4.75 | 102.85 ± 1.53 | 114.28 ± 5.4 | 126.76 ± 3.88 | 115.65 ± 6.85 | 110.21 ± 4.21 | 96.59 ± 16.88 | 94.97 ± 9.7 | 2.919 | 3.57 | 94.01 ± 0.59 | 3.413 | 125.58 ± 0.51 | 2.838 | 88.14 ± 0.51 | 2.592 | 72.02 ± 3.82 | Cell survival Avg (%) ± SD (%) ([2]; A431, 0.1 mM): 105.48 ± 0.51%; Cell survival Avg (%) ± SD (%) ([4]; 0.01 mM): 116.69 ± 0.69%; MTT absorbance (OD) ([4]; 2 mM): 2.185 OD; Cell survival Avg (%) ± SD (%) ([4]; 2 mM): 83.69 ± 4.75%; MTT absorbance (OD) ([4]; 5 mM): 2.101 OD; activity at 10 µM [4]: 83.8%; activity at 2000 µM [4]: 63.1%; activity at 50 µM ([4]; 0.05 mM): 103%; activity at 100 µM ([4]; 0.1 mM): 98.2%; activity at 500 µM ([4]; 0.5 mM): 81.8%; activity at 1000 µM ([4]; 1 mM): 74.9%; activity at 5000 µM ([4]; 5 mM): 60.5%; Cell survival Avg ± SD (%) ([5]; TXM 13, 0.01 mM): 102.16 ± 10.55%; Cell survival Avg ± SD (%) ([5]; TXM 13, 0.05 mM): 95.03 ± 10%; Cell survival Avg ± SD (%) ([5]; TXM 13, 0.1 mM): 96.89 ± 7.99%; Cell survival Avg ± SD (%) ([5]; TXM 13, 0.5 mM): 90.58 ± 3.8%; Cell survival Avg ± SD (%) ([5]; TXM 13, 1 mM): 92.34 ± 4.31%; Cell survival Avg ± SD (%) ([5]; TXM 13, 2 mM): 78.81 ± 6.22%
